Results taken from ChEMBL document CHEMBL3044920, “Progress in understanding molecular mechanisms and evolution of resistance to succinate dehydrogenase inhibiting (SDHI) fungicides in phytopathogenic fungi” (Crop Prot, 2010).

Assays:
Alternaria alternata [1] = assay: Antifungal activity against boscalid-resistant Alternaria alternata expressing AaSDHD H133R mutant assessed as inhibition of mycelial growth at 10 ppm relative to untreated control; type: functional
Alternaria alternata [2] = assay: Antifungal activity against boscalid-resistant Alternaria alternata expressing AaSDHC H134R mutant assessed as inhibition of mycelial growth at 10 ppm relative to untreated control; type: functional
Alternaria alternata [3] = assay: Antifungal activity against boscalid-resistant Alternaria alternata expressing AaSDHB H277Y mutant assessed as inhibition of mycelial growth at 10 ppm relative to untreated control; type: functional
Alternaria alternata [4] = assay: Antifungal activity against wild type Alternaria alternata assessed as inhibition of mycelial growth at 10 ppm relative to untreated control; type: functional
Alternaria alternata [5] = assay: Antifungal activity against boscalid-resistant Alternaria alternata isolate Aa29 expressing AaSDHB H277Y mutant; type: functional, organism-based
Alternaria alternata [6] = assay: Antifungal activity against wild type Alternaria alternata isolate Aa16; type: functional, organism-based
Alternaria alternata [7] = assay: Antifungal activity against boscalid-resistant Alternaria alternata isolate Aa111 expressing AaSDHB H277Y mutant; type: functional, organism-based
Botrytis cinerea = assay: Antifungal activity against resistant Botryotinia fuckeliana isolates obtained from excessive treatment with Signum; type: functional, organism-based
Alternaria alternata [8] = assay: Antifungal activity against boscalid-resistant Alternaria alternata isolate Aa122 expressing AaSDHC H134R mutant; type: functional, organism-based

Row | SMILES | inhibition at 10 ppm (Alternaria alternata [1]) [%] | inhibition at 10 ppm (Alternaria alternata [2]) [%] | inhibition at 10 ppm (Alternaria alternata [3]) [%] | inhibition at 10 ppm (Alternaria alternata [4]) [%] | EC50 (Alternaria alternata [5]) [ppm] | EC50 (Alternaria alternata [6]) [ppm] | EC50 (Alternaria alternata [7]) [ppm] | EC50 (Botrytis cinerea) [ppm] | EC50 (Alternaria alternata [8]) [ppm]
1 | CC(C)CC(C)c1sccc1NC(=O)c1cn(C)nc1C(F)(F)F (racemic) [PENTHIOPYRAD] | 88.7 | 85.1 | 90.5 | 89.7 |  |  |  |  | 
2 | O=C(Nc1ccccc1-c1ccc(Cl)cc1)c1cccnc1Cl [BOSCALID] | 47.5 | 31.9 | 30.7 | 87.2 | > 50 | 0.5 | > 50 | > 100 | > 50
3 | O=C(NCCc1ncc(C(F)(F)F)cc1Cl)c1ccccc1C(F)(F)F [FLUOPYRAM] | 16.9 | 11.3 | 41.3 | 83 | 0.25 | < 0.25 | 0.25 |  | 5
